Data from patent US20100092526A1, “NANOEMULSION THERAPEUTIC COMPOSITIONS AND METHODS OF USING THE SAME” (NanoBio Corporation, priority 2008, published 2010).

Legend:
[1] = system: Klebsiella pneumoniae; experiment: MIC/MBC of nanoemulsions against gram-negative isolates (CLSI, alamar blue); format: cell-based; conditions: Klebsiella pneumoniae (n = 5), nanoemulsions in the presence of 5 mM EDTA
[2] = system: Escherichia coli; experiment: as above; format: cell-based; conditions: Escherichia coli (n = 5), nanoemulsions in the presence of 5 mM EDTA
[3] = system: Proteus mirabilis; experiment: as above; format: cell-based; conditions: Proteus mirabilis (n = 5), nanoemulsions in the presence of 5 mM EDTA
[4] = system: Acinetobacter baumannii; experiment: as above; format: cell-based; conditions: Acinetobacter baumannii (n = 5)
[5] = system: Pseudomonas aeruginosa; experiment: as above; format: cell-based; conditions: Pseudomonas aeruginosa (n = 5)
[6] = system: Burkholderia cepacia; experiment: as above; format: cell-based; conditions: Burkholderia cepacia (n = 5); nanoemulsions in the presence of 5 mM EDTA; in µg/mL
[7] = system: Stenotrophomonas maltophilia; experiment: as above; format: cell-based; conditions: Stenotrophomonas maltophilia (n = 5); nanoemulsions in the presence of 5 mM EDTA
[8] = system: Pseudomonas aeruginosa; experiment: MIC/MBC against CF isolates (CLSI, alamar blue)
[9] = system: Burkholderia cenocepacia; experiment: MIC/MBC against CF isolates (CLSI, alamar blue)
[10] = nanoemulsions in the presence of 5 mM EDTA
[11] = P. aeruginosa, NE with 5 mM EDTA
[12] = B. cenocepacia, NE with 5 mM EDTA

## Colistin
[1]
  MIC50: ≤ 0.5 µg/mL
[1]; in µg/mL
  MIC Range: <=0.5
[2]
  MIC50: ≤ 0.5 µg/mL
[2]; in µg/mL
  MIC Range: <=0.5
[3]
  MIC50: > 4 µg/mL
[3]; in µg/mL
  MIC Range: >4
[4]
  % resistant: 0.0%
  % susceptible: 100.0%
[4]; [10]
  MIC50: ≤ 0.5 µg/mL
  MIC Range: <=0.5-2 ^
[5]
  % resistant: 0.0%
  % susceptible: 100.0%
[5]; [10]
  MIC50: 1 µg/mL
  MIC Range: <=0.5-2 ^
[6]
  MIC Range: >4
[7]
  MIC50: ≤ 0.5 µg/mL
  MIC Range: <=0.5-1 ^
[8]; 20 CF Pseudomonas isolates
  MBC 50: 4 µg/mL
  MBC 90: 8 µg/mL
  MIC50: 2 µg/mL
  MIC90: 2 µg/mL
[8]; CF Pseudomonas isolate NB1
  MBC: >8 µg/mL
  MIC: 2 µg/mL
[8]; CF Pseudomonas isolate NB2
  MBC: 8 µg/mL
  MIC: 1 µg/mL
[8]; CF Pseudomonas isolate NB3
  MBC: 8 µg/mL
  MIC: 1 µg/mL
[8]; CF Pseudomonas isolate NB4
  MBC: 4 µg/mL
  MIC: 2 µg/mL
[8]; CF Pseudomonas isolate NB5
  MBC: 8 µg/mL
  MIC: 2 µg/mL
[8]; CF Pseudomonas isolate NB6
  MBC: 4 µg/mL
  MIC: 2 µg/mL
[8]; CF Pseudomonas isolate NB7
  MBC: 4 µg/mL
  MIC: 2 µg/mL
[8]; CF Pseudomonas isolate NB8
  MBC: 8 µg/mL
  MIC: 2 µg/mL
[8]; CF Pseudomonas isolate NB9
  MBC: 8 µg/mL
  MIC: 2 µg/mL
[8]; CF Pseudomonas isolate NB10
  MBC: 2 µg/mL
  MIC: 2 µg/mL
[8]; CF Pseudomonas isolate NB11
  MBC: 4 µg/mL
  MIC: 1 µg/mL
[8]; CF Pseudomonas isolate NB12
  MBC: 8 µg/mL
  MIC: 4 µg/mL
[8]; CF Pseudomonas isolate NB13
  MBC: 8 µg/mL
  MIC: 2 µg/mL
[8]; CF Pseudomonas isolate NB14
  MBC: 4 µg/mL
  MIC: 2 µg/mL
[8]; CF Pseudomonas isolate NB15
  MBC: 8 µg/mL
  MIC: 2 µg/mL
[8]; CF Pseudomonas isolate NB16
  MBC: 4 µg/mL
  MIC: 2 µg/mL
[8]; CF Pseudomonas isolate NB17
  MBC: 4 µg/mL
  MIC: 1 µg/mL
[8]; CF Pseudomonas isolate NB18
  MBC: 4 µg/mL
  MIC: 1 µg/mL
[8]; CF Pseudomonas isolate NB19
  MBC: 4 µg/mL
  MIC: 2 µg/mL
[8]; CF Pseudomonas isolate NB20
  MBC: >8 µg/mL
  MIC: 2 µg/mL
[8]; [11]
  MBC 90: 8 µg/mL
  MIC90: 2 µg/mL
[8]; second MBC 50 line of the summary, Stenotrophomonas, values equal those of the CF Pseudomonas isolates
  MBC 50: 4 µg/mL
[8]; second MBC 90 line of the summary, Stenotrophomonas, values equal those of the CF Pseudomonas isolates
  MBC 90: 8 µg/mL
[9]; 10 CF Burkholderia isolates
  MBC 50: >32 µg/mL
  MBC 90: >32 µg/mL
  MIC50: >32 µg/mL
  MIC90: >32 µg/mL
[9]; [12]
  MBC 90: > 32 µg/mL
  MIC90: > 32 µg/mL
[9]; Burkholderia, each drug alone
  MBC 50: >32 µg/mL
  MBC 90: >32 µg/mL
  MIC50: >32 µg/mL
  MIC90: >32 µg/mL
[9]; CF Burkholderia isolate NB21
  MBC: >32 µg/mL
  MIC: >32 µg/mL
[9]; CF Burkholderia isolate NB22
  MBC: >32 µg/mL
